Measurements: patent US20070172471A1, “Method for identifying an anti- streptococcal agent and its use for treating streptococcal infections” (Hansa Medical AB, priority 2003, published 2007)
Peptide text beside a SMILES is read from it.

B1: Protein H (IgG-binding surface protein of S. pyogenes AP1), recombinant from E. coli (other)
chain: EGAKIDWQEEYKKLDEDNAKLVEVVETTSLENEKLKSENEENKKNLDKLSKENQGKLEKLELDYLKKLDHEHKEHQKEQQEQEERQKNQEQLERKYQREVEKRYQEQLQKQQQLETEKQISEASRKSLSRDLEASRAAKKDLEAEHQKLEAEHQKLKEDKQISDASRQGLSRDLEASRAAKKELEANHQKLEAEHQKLKEDKQISDASRQGLSRDLEASRAAKKELEANHQKLEAEAKALKEQLAKQAEELAKLRAGKASDSQTPDTKPGNKAVPGKGQAPQAGTKPNQNKAPMKETKRQLPST
notes: also called purified protein H
B2: protein H: IgG-binding surface protein of AP1 bacteria, closely related to M1 protein, does not bind fibrinogen (protein)
chain: B1 chain

Legend:
[1] = system: M1 protein-induced release of HBP from PMNs in human blood; conditions: M1 protein 1 μg/ml, 30 min 37° C., FIG. 2 and FIG. 5B
Experimental: (§1) HBP release. 100 μl human blood were diluted in PBS to a final volume of 1.0 ml and incubated with various PMNs-activating components for 30 min at 37° C. Cells were centrifuged (300×g for 15 min) and the supernatant was analyzed by sandwich ELISA. In order to quantify the total amount of HBP in blood, cells were lysed with 0.02% (v/v) Triton X-100, and pelleted as described above.

[2] = system: mice of the C57BL/6 strain; conditions: for breathing of mice: thirty minutes after i.v. M1 protein 15 μg/animal, alone or plus peptide 400 μg/animal; for lung damage after injection of the protein alone, scanning electron microscopy / lung lesions after injection of the protein alone, light microscopy: i.v., M1 protein 15 μg/animal, 30 min
PMNs in human blood = test: HBP release in human blood by streptococcal and other PMN-activating components; type: cell-based; conditions: for release of HBP: added to human blood, HBP in supernatant by ELISA, FIG. 1
Experimental: as §1

fibrinogen [3] = molecular target: T1, fibrinogen (Homo sapiens, UniProt P02671+P02675+P02679); test: Fibrinogen binding on Western blot; conditions: literature statement, demonstrated in the applicant's blot probed with fibrinogen 2 μg/ml
T1 sequence (P02671 20-644 isoform P02671-2 limits assumed): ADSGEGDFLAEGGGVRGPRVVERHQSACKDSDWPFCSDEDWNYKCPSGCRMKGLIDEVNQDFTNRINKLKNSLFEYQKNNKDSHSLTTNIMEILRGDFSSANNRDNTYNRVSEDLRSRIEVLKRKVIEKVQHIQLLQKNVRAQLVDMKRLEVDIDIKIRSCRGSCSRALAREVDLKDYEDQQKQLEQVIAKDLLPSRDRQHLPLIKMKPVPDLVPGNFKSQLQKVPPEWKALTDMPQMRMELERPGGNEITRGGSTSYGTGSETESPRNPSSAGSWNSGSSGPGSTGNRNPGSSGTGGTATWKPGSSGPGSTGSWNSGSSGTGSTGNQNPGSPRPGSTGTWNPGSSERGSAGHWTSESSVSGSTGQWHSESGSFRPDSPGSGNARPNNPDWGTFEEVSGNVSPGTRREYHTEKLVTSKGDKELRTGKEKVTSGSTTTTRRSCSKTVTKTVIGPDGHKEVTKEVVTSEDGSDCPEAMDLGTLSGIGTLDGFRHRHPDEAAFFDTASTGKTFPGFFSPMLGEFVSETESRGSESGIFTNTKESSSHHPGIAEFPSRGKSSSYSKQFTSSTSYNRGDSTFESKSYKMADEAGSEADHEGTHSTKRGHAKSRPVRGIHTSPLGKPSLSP
T1 sequence (P02675 31-491): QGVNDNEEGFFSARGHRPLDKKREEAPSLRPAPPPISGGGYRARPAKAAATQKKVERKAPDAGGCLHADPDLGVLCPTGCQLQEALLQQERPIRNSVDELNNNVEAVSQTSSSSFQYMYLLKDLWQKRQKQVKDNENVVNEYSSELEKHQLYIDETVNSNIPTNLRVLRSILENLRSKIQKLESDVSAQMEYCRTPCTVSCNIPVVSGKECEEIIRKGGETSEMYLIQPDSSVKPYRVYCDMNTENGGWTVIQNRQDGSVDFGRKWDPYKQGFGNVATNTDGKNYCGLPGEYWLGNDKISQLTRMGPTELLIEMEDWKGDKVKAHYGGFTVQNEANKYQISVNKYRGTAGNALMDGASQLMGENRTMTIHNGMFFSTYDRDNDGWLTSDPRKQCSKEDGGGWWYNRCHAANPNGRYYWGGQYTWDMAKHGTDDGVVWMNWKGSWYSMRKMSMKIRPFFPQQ
T1 sequence (P02679 27-453): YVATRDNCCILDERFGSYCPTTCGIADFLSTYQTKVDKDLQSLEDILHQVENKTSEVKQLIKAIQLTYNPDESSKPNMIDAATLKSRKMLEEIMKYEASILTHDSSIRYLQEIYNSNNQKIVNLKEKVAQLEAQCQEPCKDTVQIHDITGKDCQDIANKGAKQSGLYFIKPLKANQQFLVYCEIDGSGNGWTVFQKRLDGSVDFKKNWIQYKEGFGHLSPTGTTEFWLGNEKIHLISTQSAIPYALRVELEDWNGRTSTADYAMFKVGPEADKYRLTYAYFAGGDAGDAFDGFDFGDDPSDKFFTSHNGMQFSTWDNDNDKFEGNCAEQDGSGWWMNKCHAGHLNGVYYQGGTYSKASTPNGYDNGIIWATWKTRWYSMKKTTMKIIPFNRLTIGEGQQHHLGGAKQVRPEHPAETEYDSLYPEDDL
Experimental: SDS-polyacrylamide gel electrophoresis, Western blotting, and immunoprinting. Proteins were separated by 12.5% (w/v) polyacrylamide gel electrophoresis in the presence of 1% (w/v) SDS (Laemmli, 1970, Nature, 227, 680-685). Molecular weight markers were from Sigma Chemical Co. (St. Louis, Mo.). The resolved proteins were visualized by the silver stain technique. Proteins were also transferred onto nitrocellulose membranes for 30 min at 100 mA (Khyse-Andersen, 1984, J. Biochem. Biophys. Methods, 10, 203-209). The membranes were blocked with PBS containing 5% (w/v) dry milk powder and 0.05% (w/v) Tween-20, pH 7.4. Immunoprinting of the transferred proteins was done according to Towbin et al. (Towbin et al., 1979, Proc. Natl. Acad. Sci. USA, 76, 4350-4354). Polyclonal antibodies against M1 protein, diluted 1:50000 in the blocking buffer, was used. Bound antibodies were detected using a peroxidase-conjugated secondary antibodies against rabbit IgG (dilution 1:3000) followed by a chemiluminescence detection method. Alternatively, membranes were blocked, incubated with fibrinogen (2 μg/ml) followed by immunodetection with antibodies to fibrinogen (1:1000) and peroxidase-conjugated secondary antibodies against rabbit immunoglobulin (1:3000 diluted).

Fibrinogen [4] = molecular target: T2, Fibrinogen (human, UniProt P02671 20-630; P02675 31-491; P02679 27-453); test: ligand blot: SDS-PAGE, transfer to nitrocellulose, probed with fibrinogen, immunodetection of bound fibrinogen
T2 construct: also called human fibrinogen; purified fibrinogen

| Molecule | effect on M1 protein-induced release of HBP [1] | release of HBP (PMNs in human blood; 30 min 37° C.) | further results |
| --- | --- | --- | --- |
| COc1cc2ncnc(Nc3cccc(Cl)c3)c2cc1OC [AG1478] | did not interfere with the secretion of HBP |  |  |
| O=C(O)CN(CCOCCOCCN(CC(=O)O)CC(=O)O)CC(=O)O [EGTA] | blocked HBP release |  |  |
| CN(C)CCCn1cc(C2=C(c3c[nH]c4ccccc34)C(=O)NC2=O)c2ccccc21 [GF109203] | did not interfere with the secretion of HBP |  |  |
| N=C(N)NCCC[C@H](NC(=O)[C@H](Cc1c[nH]cn1)NC(=O)CN)C(=O)N1CCC[C@H]1C(=O)O [Gly-His-Arg-Pro] (H-GHRP-OH) |  |  | breathing of mice [2]: clearly affected |
| O=S(=O)(NCCNC/C=C/c1ccc(Br)cc1)c1cccc2cnccc12 [H-89] | did not interfere with the secretion of HBP |  |  |
| COc1cccc(-c2cc(=O)c3ccccc3o2)c1N [PD98059] | did not interfere with the secretion of HBP |  |  |
| COc1ccc2c(c1)CC[C@@H]1[C@@H]2CC[C@]2(C)[C@@H](NCCCCCCN3C(=O)C=CC3=O)CC[C@@H]12 [U-73122] | did not interfere with the secretion of HBP |  |  |
| CSCC[C@H](NC=O)C(=O)N[C@@H](CC(C)C)C(=O)N[C@@H](Cc1ccccc1)C(=O)O [fMLP, formyl-methionyl-leucyl-phenylalanine] |  | evoked secretion of HBP |  |
| O=c1c(-c2ccc(O)cc2)coc2cc(O)cc(O)c12 [genistein] | blocked the release of HBP almost completely |  |  |
| M1 protein: recombinant M1 protein of Streptococcus pyogenes expressed in E. coli (SEQ ID NO: 1) |  |  | HBP stored in PMNs mobilized (PMNs in human blood; M1 protein final concentration 1 μg/ml, human whole blood, 30 min 37° C., FIG. 1A): about 63%; M1 protein concentration of maximal release of HBP from PMNs (PMNs in human blood; blood diluted 1/10, FIG. 3B): 1 µg/mL; binding of fibrinogen (fibrinogen [3]): binds fibrinogen with high affinity; ratio of lung area containing protein aggregates versus total lung area ([2]; M1 protein alone i.v., six lung sections per animal, electron microscopy): 90±2%; lung damage after injection of the protein alone, scanning electron microscopy [2]: severe leakage of erythrocytes; lung lesions after injection of the protein alone, light microscopy [2]: severe hemorrhage and tissue destruction; breathing of mice [2]: clearly affected |
| SpeB: streptococcal cysteine proteinase |  | did not induce HBP release |  |
| hyaluronic acid |  | did not induce HBP release |  |
| lipoteichoic acid |  | evoked secretion of HBP |  |
| pertussis toxin | none of the two components inhibited the release of HBP |  |  |
| B1 |  |  | binding result (Fibrinogen [4]): no binding |
| B2 |  | Only minute amounts | binding of fibrinogen (fibrinogen [3]): shows no interaction with fibrinogen; lung damage after injection of the protein alone, scanning electron microscopy [2]: did neither cause serious bleeding; lung lesions after injection of the protein alone, light microscopy [2]: no hemorrhage |
